PMC11939327, “Chaetocin, a Natural Inhibitor of Transketolase, Suppresses the Non-Oxidative Pentose Phosphate Pathway and Inhibits the Growth of Drug-Resistant Non-Small Cell Lung Cancer” (Antioxidants, 2025)

Molecular target: T1, transketolase (TKT) (Homo sapiens, UniProt P29401)
T1 sequence (P29401 1-623): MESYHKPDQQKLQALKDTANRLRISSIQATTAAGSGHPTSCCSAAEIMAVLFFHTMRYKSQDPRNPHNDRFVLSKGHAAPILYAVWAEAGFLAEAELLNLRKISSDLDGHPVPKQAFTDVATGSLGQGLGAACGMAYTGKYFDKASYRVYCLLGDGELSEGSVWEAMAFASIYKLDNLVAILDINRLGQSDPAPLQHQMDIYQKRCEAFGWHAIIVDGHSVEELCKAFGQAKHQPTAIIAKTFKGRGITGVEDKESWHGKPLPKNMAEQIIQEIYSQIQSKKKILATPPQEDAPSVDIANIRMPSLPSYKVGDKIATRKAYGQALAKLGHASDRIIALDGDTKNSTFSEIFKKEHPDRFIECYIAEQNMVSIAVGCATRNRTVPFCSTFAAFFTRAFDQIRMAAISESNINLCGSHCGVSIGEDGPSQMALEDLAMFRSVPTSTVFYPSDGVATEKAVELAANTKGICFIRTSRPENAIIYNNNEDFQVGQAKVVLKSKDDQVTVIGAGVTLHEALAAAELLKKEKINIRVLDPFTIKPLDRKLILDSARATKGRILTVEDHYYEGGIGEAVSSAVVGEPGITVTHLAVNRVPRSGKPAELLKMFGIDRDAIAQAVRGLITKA
Assay: Bio-layer interferometry with biotinylated TKT on SA biosensors; supported by DARTS and CETSA in A549/DDP cells
Format: binding

CN1C(=O)[C@@]23C[C@]4([C@]56C[C@@]78SS[C@@](CO)(C(=O)N7[C@H]5Nc5ccccc56)N(C)C8=O)c5ccccc5N[C@@H]4N2C(=O)[C@]1(CO)SS3 [chaetocin]
Kd: 63.2 µM
